Laboratory results taken from ChEMBL document CHEMBL1147190, “Acid-catalyzed synthesis of oxathiolone fused chalcones. Comparison of their activity toward various microorganisms and human cancer cells line” (Eur J Med Chem, 2007).
In brackets after ≈: the same amount, converted by molar mass.

Experiments:
[1] = tested on: Mycobacterium tuberculosis; experiment: Tuberculostatic activity against Mycobacterium tuberculosis H37Rv; assay type: functional
Escherichia coli = experiment: Bacteriostatic activity against Escherichia coli ATCC 11775 after 24 hrs by serial dilution microtiter plate method; assay type: functional, organism-based; details: ATCC 11775, 24 h
Salmonella typhimurium = experiment: Bacteriostatic activity against Salmonella Typhimurium PCM 2180 after 24 hrs by serial dilution microtiter plate method; assay type: functional, organism-based, Salmonella enterica subsp. enterica serovar Typhimurium; details: Salmonella enterica
Staphylococcus aureus = experiment: Bacteriostatic activity against Staphylococcus aureus ATCC 9144 after 24 hrs by serial dilution microtiter plate method; assay type: functional, organism-based; details: ATCC 9144, 24 h
Mycobacterium kansasii = experiment: Tuberculostatic activity against Mycobacterium kansasii; assay type: functional
Proteus vulgaris = experiment: Bacteriostatic activity against Proteus vulgaris ATCC 6380 after 24 hrs by serial dilution microtiter plate method; assay type: functional, organism-based; details: ATCC 6380, 24 h
Candida albicans = experiment: Antifungal activity against Candida albicans ATCC 10261 after 48 hrs by serial dilution microtiter plate method; assay type: functional, organism-based; details: ATCC 10261, 48 h
Micrococcus luteus = experiment: Bacteriostatic activity against Micrococcus luteus after 24 hrs by serial dilution microtiter plate method; assay type: functional, organism-based
HeLa = experiment: Cytotoxicity against human HeLa S3 cells after 120 hrs by MTT assay; assay type: functional, cell-based

| SMILES | MIC [1] | IC50 (Escherichia coli) | IC50 (Salmonella typhimurium) | IC50 (Staphylococcus aureus) | MIC (Mycobacterium kansasii) | IC50 (Proteus vulgaris) | IC50 (Candida albicans) | IC50 (Micrococcus luteus) | IC50 (HeLa) |
| --- | --- | --- | --- | --- | --- | --- | --- | --- | --- |
| COc1ccc2oc(=O)sc2c1C(=O)/C=C/c1cccc(Cl)c1 | 25 µg/mL (≈ 72.1 µM) | > 1000 µg/mL | > 1000 µg/mL | > 1000 µg/mL | 100 µg/mL (≈ 288 µM) | > 1000 µg/mL | > 1000 µg/mL | > 1000 µg/mL |  |
| COc1ccc2oc(=O)sc2c1C(=O)/C=C/c1ccc([N+](=O)[O-])cc1 | > 100 µg/mL | > 1000 µg/mL | > 1000 µg/mL | > 1000 µg/mL | > 100 µg/mL | > 1000 µg/mL | > 1000 µg/mL | > 1000 µg/mL |  |
| COc1ccc(/C=C/C(=O)c2c(OC)ccc3oc(=O)sc23)cc1OC | > 100 µg/mL | > 1000 µg/mL | > 1000 µg/mL | > 1000 µg/mL | > 100 µg/mL | > 1000 µg/mL | > 1000 µg/mL | > 1000 µg/mL | 14.1 µM |
| COc1ccc2oc(=O)sc2c1C(=O)/C=C/c1ccccc1Cl | 50 µg/mL (≈ 144 µM) | > 1000 µg/mL | > 1000 µg/mL | > 1000 µg/mL | > 100 µg/mL | > 1000 µg/mL | > 1000 µg/mL | > 1000 µg/mL |  |
| COc1ccc2oc(=O)sc2c1C(=O)/C=C/c1ccc(Cl)cc1 | 100 µg/mL (≈ 288 µM) | > 1000 µg/mL | > 1000 µg/mL | 7.8 µg/mL (≈ 22.5 µM) | > 100 µg/mL | > 1000 µg/mL | 62.5 µg/mL (≈ 180 µM) | 15.6 µg/mL (≈ 45 µM) | 5.2 µM |
| COc1ccc2oc(=O)sc2c1C(=O)/C=C/c1ccc(Br)cc1 | > 100 µg/mL | > 1000 µg/mL | > 1000 µg/mL | > 1000 µg/mL | > 100 µg/mL | > 1000 µg/mL | > 1000 µg/mL | > 1000 µg/mL |  |
| COc1ccc(/C=C/C(=O)c2c(OC)ccc3oc(=O)sc23)cc1 | > 100 µg/mL | > 1000 µg/mL | > 1000 µg/mL | > 1000 µg/mL | > 100 µg/mL | > 1000 µg/mL | > 1000 µg/mL | > 1000 µg/mL |  |
| COc1ccc2oc(=O)sc2c1C(=O)/C=C/c1ccccc1 | > 100 µg/mL | > 1000 µg/mL | > 1000 µg/mL | > 1000 µg/mL | > 100 µg/mL | > 1000 µg/mL | > 1000 µg/mL | > 1000 µg/mL | 8.4 µM |
| COc1ccc2oc(=O)sc2c1C(=O)/C=C/c1ccc(OCCN2CCOCC2)cc1 | 50 µg/mL (≈ 113 µM) | 125 µg/mL (≈ 283 µM) | 250 µg/mL (≈ 566 µM) | 31.2 µg/mL (≈ 70.7 µM) | > 100 µg/mL | 125 µg/mL (≈ 283 µM) | 250 µg/mL (≈ 566 µM) | 31.2 µg/mL (≈ 70.7 µM) |  |
| COc1ccc2oc(=O)sc2c1C(=O)/C=C/c1ccc(N(C)C)cc1 | > 100 µg/mL | > 1000 µg/mL | > 1000 µg/mL | > 1000 µg/mL | > 100 µg/mL | > 1000 µg/mL | > 1000 µg/mL | > 1000 µg/mL | > 100 µM |
| COc1ccc2oc(=O)sc2c1C(=O)/C=C/c1ccc(OCCN(C)C)cc1 | 100 µg/mL (≈ 250 µM) | 125 µg/mL (≈ 313 µM) | 250 µg/mL (≈ 626 µM) | 15.6 µg/mL (≈ 39.1 µM) | 100 µg/mL (≈ 250 µM) | 125 µg/mL (≈ 313 µM) | 125 µg/mL (≈ 313 µM) | 15.6 µg/mL (≈ 39.1 µM) | 8.3 µM |
